Experiments:
[1] = test system: Glutamate PCP (Phencyclidine-binding site of NMDA receptor); test: Off-target binding (Cerep); parameters: unit of the concentration uncertain
From the text: (§1) Off-target binding of compounds assessed using an in-house assay (M4) and a commercial battery (all others) (Cerep, Celle L'Evescault, France).
(§2) Concentration % Inhibition Concentration % Inhibition Concentration % Inhibition […]
(§3) *1α -amino-3-hydroxy-5-methyl-4-isoxazolepropionic acid receptor; *2N-methyl-D-aspartate receptor; *3Strychnine-insensitive glycine-binding module of NMDA receptor; *4Phencyclidine-binding site of NMDA receptor; *5ATP-sensitive potassium channel; *6Voltage-dependent potassium channel; *7small conductance calcium-activated potassium channel; *85-hydroxytryptamine 1A receptor

[2] = test system: Glutamate NMDA; test: Off-target binding (Cerep); parameters: unit of the concentration uncertain
From the text: as §1, §2, §3

[3] = test system: K+ channel KATP; test: Off-target binding (Cerep); parameters: unit of the concentration uncertain
From the text: as §1, §2, §3

[4] = target: T1, Adrenergic α2c receptor (Homo sapiens, UniProt P18825); test: Adrenergic α2c receptor binding, [3H]MK-912; settings: 0.08 nM [3H]MK-912; read-out: Off-target binding Adrenergic α2c, IC50
T1 construct: purchased PerkinElmer
T1 sequence (P18825 1-462): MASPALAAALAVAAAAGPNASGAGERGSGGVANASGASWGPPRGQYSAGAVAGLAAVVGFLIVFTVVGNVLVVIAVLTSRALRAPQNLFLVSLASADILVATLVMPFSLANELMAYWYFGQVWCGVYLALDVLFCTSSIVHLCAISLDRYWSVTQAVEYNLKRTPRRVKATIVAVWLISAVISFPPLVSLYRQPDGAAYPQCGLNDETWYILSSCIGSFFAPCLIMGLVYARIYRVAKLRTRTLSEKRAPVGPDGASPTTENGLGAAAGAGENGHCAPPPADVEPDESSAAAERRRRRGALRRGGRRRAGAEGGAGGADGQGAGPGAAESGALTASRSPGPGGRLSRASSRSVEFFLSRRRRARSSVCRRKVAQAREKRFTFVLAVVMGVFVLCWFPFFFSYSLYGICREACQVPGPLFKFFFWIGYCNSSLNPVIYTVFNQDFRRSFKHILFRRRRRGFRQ
Procedure: (§4) H) 6.86 [d, J = 8.67 Hz, 2 H]; MS [ESI/APCI Dual) [Positive) m/z; 381(M+H)+ ) .
(§5) Off-target binding of compounds
(§6) The membrane preparations were made from Jurkat cell lines, and were incubated in sigma 1 binding buffer (0.1% bovine serum albumin in 50 mM Tris, pH7.4) containing 4 nM [3H]pentazocine (PerkinElmer), and serial concentrations of the compound at 25°C for 2.5 h. The reaction was terminated by rapid filtration through a 96-well GF/C filter plate presoaked in 0.5% polyethyleneimine.
(§7) The filters were washed with ice-cold 50 mM Tris (pH7.4) three times, dried, and filled with Microscint-o. The radioactivity retained on the filter was counted using a TopCount NXT. Nonspecific binding was determined as the amount of radioactivity under the above-mentioned conditions in the presence of […] of haloperidol. The IC50 values were determined by nonlinear curve-fitting of the concentration-response data for each compound using Origin version 6.1087 (OriginLab Corporation, […]
(§8) Adrenergic 2c receptor binding
Human 2c receptor-expressing membrane preparations were purchased from PerkinElmer. The membranes were incubated in binding buffer (1 mM EDTA and 0.1% bovine serum albumin in 50 mM Tris, pH7.4) containing 0.08 nM [3H]MK-912 (PerkinElmer), and serial concentrations of the compound at 25°C for 1 h. The reaction was terminated by rapid filtration through a 96-well GF/C filter plate presoaked in 0.5% polyethyleneimine. […] The radioactivity retained on the filter was counted using a TopCount NXT. Nonspecific binding was determined as the amount of radioactivity under the conditions mentioned above in the presence of […] of rauwolscine. The IC50 values were determined as for sigma 1 receptor binding. […]
The reaction was terminated by rapid filtration through a 96-well GF/C filter plate presoaked in 0.5% polyethyleneimine. […] The radioactivity retained on the filter was counted using a TopCount NXT. Nonspecific binding was determined as the amount of radioactivity under the above-mentioned conditions in the presence of 1 µM of atropine.

[5] = target: T2, P-glycoprotein (MDR1) (Homo sapiens, UniProt P08183); test: P-glycoprotein-mediated transcellular transport, LLC-GA5-COL300 cells; format: in vitro ADME; settings: for susceptibility for P-glycoprotein (substrate or not): assumed criterion: efflux ratio (ER) exceeding 2.00; for efflux ratio at 2 h, 1 µM: human, LLC-PK1, ER=Papp, b to a/Papp, a to b, LLC-GA5-COL300 cells
T2 construct: expressed in transfected cells; host or cells: LLC-GA5-COL300
T2 sequence (P08183 whole entry): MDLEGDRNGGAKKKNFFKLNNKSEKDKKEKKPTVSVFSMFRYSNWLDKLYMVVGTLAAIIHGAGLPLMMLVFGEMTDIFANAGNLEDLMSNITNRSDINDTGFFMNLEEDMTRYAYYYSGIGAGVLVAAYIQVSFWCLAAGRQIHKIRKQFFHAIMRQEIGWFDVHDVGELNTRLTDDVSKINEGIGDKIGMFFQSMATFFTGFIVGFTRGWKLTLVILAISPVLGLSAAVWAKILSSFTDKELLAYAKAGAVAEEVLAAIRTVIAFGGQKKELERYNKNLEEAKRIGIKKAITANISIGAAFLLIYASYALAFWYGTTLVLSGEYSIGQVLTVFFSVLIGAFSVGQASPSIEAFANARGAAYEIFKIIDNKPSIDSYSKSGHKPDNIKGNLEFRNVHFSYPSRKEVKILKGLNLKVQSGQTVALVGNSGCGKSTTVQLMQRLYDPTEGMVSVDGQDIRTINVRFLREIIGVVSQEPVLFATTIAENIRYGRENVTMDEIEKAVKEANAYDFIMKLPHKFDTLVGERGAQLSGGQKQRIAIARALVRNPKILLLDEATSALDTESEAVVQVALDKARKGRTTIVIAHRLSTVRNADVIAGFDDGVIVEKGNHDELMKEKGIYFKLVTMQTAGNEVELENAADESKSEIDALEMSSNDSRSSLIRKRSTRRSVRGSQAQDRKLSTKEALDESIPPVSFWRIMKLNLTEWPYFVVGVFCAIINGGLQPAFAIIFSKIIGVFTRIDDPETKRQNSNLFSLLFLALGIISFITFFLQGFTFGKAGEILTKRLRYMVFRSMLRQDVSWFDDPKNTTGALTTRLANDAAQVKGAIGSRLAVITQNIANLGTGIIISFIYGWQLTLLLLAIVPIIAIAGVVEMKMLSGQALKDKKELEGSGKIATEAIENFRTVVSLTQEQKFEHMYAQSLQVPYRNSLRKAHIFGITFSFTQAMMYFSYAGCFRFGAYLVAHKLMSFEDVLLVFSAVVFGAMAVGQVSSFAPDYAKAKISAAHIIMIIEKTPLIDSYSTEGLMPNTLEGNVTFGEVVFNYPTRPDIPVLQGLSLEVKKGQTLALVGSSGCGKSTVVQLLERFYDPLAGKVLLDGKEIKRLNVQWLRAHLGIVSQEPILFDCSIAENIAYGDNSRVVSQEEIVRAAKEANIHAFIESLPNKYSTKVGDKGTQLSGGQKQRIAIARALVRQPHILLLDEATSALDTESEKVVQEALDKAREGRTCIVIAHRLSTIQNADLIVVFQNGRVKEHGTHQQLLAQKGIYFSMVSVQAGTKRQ
Procedure: Assays for P-glycoprotein-mediated transcellular transport of compounds LLC-GA5-COL300 cells expressing human P-glycoprotein were seeded at a density of 4.5 × 10^5 cells/cm2 onto polycarbonate membrane filters of 12-well cell culture insert plates and cultured at 37°C in a humidified incubator containing 5% CO2 for 3 days. After each cell monolayer was pre-incubated at 37°C for 20 min in Hank’s balanced salt solution containing 10 mM HEPES (HBSS buffer), transcellular transport experiments were initiated by adding the test compound solution to the apical or basal side of the cell culture inserts. HBSS buffer was sampled from the compartment opposite of that spiked with the test compounds at 0.5, 1, 1.5 and 2 h after initiation of the experiments, and concentrations of the test compounds were determined using LC-MS/MS. The apparent permeability coefficient (Papp) of the test compounds was calculated using the following equation:
Papp= dQ/dt / C0 / A Eq. 1, where dQ/dt represents the rate of permeation of the compounds, C0 is the initial concentration of the test compounds ([…]), and A is the area of the monolayer. The efflux ratio (ER) was defined as […]
ER=Papp, b to a/Papp, a to b Eq. 2, where Papp, b to a and Papp, a to b represent Papp in the basal-to-apical (b to a) and apical-to-basal (a to b) directions, respectively. […]

[6] = target: T3, Sigma 1 receptor (Homo sapiens, UniProt Q99720); test: Sigma 1 receptor binding, [3H]pentazocine; settings: Jurkat cell membranes; 4 nM [3H]pentazocine; read-out: Off-target binding Sigma 1, IC50
T3 construct: The membrane preparations were made from Jurkat cell lines; endogenous in cells; host or cells: Jurkat
T3 sequence (Q99720 whole entry): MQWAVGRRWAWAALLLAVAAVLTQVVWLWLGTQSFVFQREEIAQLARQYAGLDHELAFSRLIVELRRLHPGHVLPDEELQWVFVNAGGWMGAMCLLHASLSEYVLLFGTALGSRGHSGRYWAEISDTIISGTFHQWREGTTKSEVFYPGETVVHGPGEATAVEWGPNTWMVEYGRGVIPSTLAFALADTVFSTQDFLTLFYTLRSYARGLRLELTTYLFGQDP
Procedure: as §4, §5, §6, §7, §8
Human 2c receptor-expressing membrane preparations were purchased from PerkinElmer. The

[7] = test system: Ca2+ channel (L, dihydropyridine site); test: Off-target binding (Cerep); parameters: unit of the concentration uncertain
From the text: (§9) Off-target binding of compounds assessed using an in-house assay (M4) and a commercial battery (all
(§10) others) (Cerep, Celle L'Evescault, France).
as §2

[8] = test system: Benzodiazepine (central); test: Off-target binding (Cerep); parameters: unit of the concentration uncertain
From the text: as §9, §10, §2

[9] = Concentration 10 (unit uncertain)
[10] = Concentration 1 (unit uncertain)

| SMILES | % Inhibition [1, 9] | % Inhibition [2, 9] | % Inhibition [3, 9] | IC50 [4] | susceptibility for P-glycoprotein (substrate or not) [5] | efflux ratio at 2 h, 1 µM [5] | IC50 [6] | % Inhibition [7, 9] | % Inhibition [8, 9] | % Inhibition [1, 10] | % Inhibition [2, 10] | % Inhibition [3, 10] | % Inhibition [7, 10] | % Inhibition [8, 10] |
| --- | --- | --- | --- | --- | --- | --- | --- | --- | --- | --- | --- | --- | --- | --- |
| COc1ccc(N2C(=O)CCc3cc(OC4CCN(C5CCC5)CC4)ccc32)cn1 [TASP0410457, 6-[(1-Cyclobutylpiperidin-4-yl)oxy]-1-(6-methoxypyridin-3-yl)-3,4-dihydroquinolin-2(1H)-one] | -2% | 11% | 5% | > 1000 nM | not a substrate of P-glycoprotein | 1.64 | 379 nM | -23% | -4% |  |  |  |  |  |
| COc1ccc(N2C(=O)CCc3cc(OC4CCN(C5CCC5)CC4)ccc32)cc1 [TASP0434988, 6-[(1-cyclobutylpiperidin-4-yl)oxy]-1-(4-methoxyphenyl)-3,4-dihydroquinolin-2(1H)-one] |  |  |  | 528 nM | P-glycoprotein substrates | 2.14 | 257 nM |  |  | 9% | -7% | -4% | -27% | -2% |
| COc1ccc(N2C(=O)CCc3cc(OCCCN4CCC[C@H]4C)ccc32)cc1 [TASP0390136, 1-(4-methoxyphenyl)-6-{3-[(2R)-2-methylpyrrolidin-1-yl]propoxy}-3,4-dihydroquinolin-2(1H)-one] | -2% | -2% | 22% | > 1000 nM | P-glycoprotein substrates | 6.29 | 167 nM | 20% | -19% |  |  |  |  |  |

Source: PMC4747952, “Development of TASP0410457 (TASP457), a novel dihydroquinolinone derivative as a PET radioligand for central histamine H3 receptors” (EJNMMI Research, 2016)
